Measured values as given in patent publication US6914045B2, “Glycopeptide antibiotics” (Wyeth Holdings Corporation, priority 2001, dated 2005).
Values after ≈ are worked out from the molar mass of the structure shown. Where two headings read alike, the source gives them in different places. Blank lines part the entries; values can stand above or below the compound they belong to.

What was measured:
Assay in all cases: in vitro antibacterial evaluation, MIC by broth dilution
Assay type in all cases: cell-based
Streptococcus sp. = system: Streptococcus sp.
Procedure: (§1) Methods for in vitro Antibacterial Evaluation (Table 1)
(§2) The minimum inhibitory concentration (MIC), the lowest concentration of the antibiotic which inhibits growth of the test organism, is determined by the broth dilution method using Muller-Hinton II […] (Baltimore Biological Laboratories) following the recommendations of the National Committee for Clinical Laboratory Standards [Methods for dilution antimicrobial susceptibility tests for bacteria that grow aerobically, approved standard M7-A2, National Committee for Clinical Laboratory Standards, Villanova, Pa.].
(§3) An inoculum level of 5×10^5 CFU/mL, and a range of antibiotic concentrations (64-0.06 μg/mL) is used. […] The test organisms include a spectrum of Gram-positive bacteria comprised of Staphylococcus sp., Streptococcus sp. and Enterococcus sp. These organisms include recent clinical isolates that are resistant to methicillin, penicillin and/or vancomycin.

Enterococcus sp. = system: Enterococcus sp.
Procedure: as §1, §2, §3

Staphylococcus sp. = system: Staphylococcus sp.
Procedure: as §1, §2, §3

Escherichia coli = system: Escherichia coli
Method in brief: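 Broth dilution in Muller-Hinton II medium per NCCLS standard M7-A2, with an inoculum of 5×10^5 CFU/mL and antibiotic tested over 64-0.06 μg/mL. MIC was taken as the lowest concentration inhibiting visible growth.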

- MIC Streptococcus pneumoniae (ATCC 6301) (Streptococcus sp.; strain ATCC 6301, broth dilution, 18 hours at 35° C.): >128 µg/mL
- MIC Streptococcus pneumoniae (GC 1894) (Streptococcus sp.; strain GC 1894, broth dilution, 18 hours at 35° C.): 128 µg/mL (≈ 126 µM)
- MIC Streptococcus pyogenes (GC 4563) (Streptococcus sp.; strain GC 4563, broth dilution, 18 hours at 35° C.): >128 µg/mL
- MIC Streptococcus agalactiae (GC 4564) (Streptococcus sp.; strain GC 4564, broth dilution, 18 hours at 35° C.): 128 µg/mL (≈ 126 µM)
- MIC Streptococcus pneumoniae (GC 4565) (Streptococcus sp.; strain GC 4565, broth dilution, 18 hours at 35° C.): 128 µg/mL (≈ 126 µM)
- MIC Enterococcus faecalis (ATCC 29212) (Enterococcus sp.; strain ATCC 29212, broth dilution, 18 hours at 35° C.): >128 µg/mL
- MIC Enterococcus faecalis (GC 2242) (Enterococcus sp.; strain GC 2242, broth dilution, 18 hours at 35° C.): >128 µg/mL
- MIC Enterococcus faecium (GC 2243) (Enterococcus sp.; strain GC 2243, broth dilution, 18 hours at 35° C.): >128 µg/mL
- MIC Enterococcus faecalis (GC 2691) (Enterococcus sp.; strain GC 2691, broth dilution, 18 hours at 35° C.): >128 µg/mL
- MIC Enterococcus faecalis (GC 3059) (Enterococcus sp.; strain GC 3059, broth dilution, 18 hours at 35° C.): >128 µg/mL
- MIC Enterococcus faecalis (GC 4552) (Enterococcus sp.; strain GC 4552, broth dilution, 18 hours at 35° C.): >128 µg/mL
- MIC Enterococcus faecalis (GC 4553) (Enterococcus sp.; strain GC 4553, broth dilution, 18 hours at 35° C.): >128 µg/mL
- MIC Enterococcus faecalis (GC 4554) (Enterococcus sp.; strain GC 4554, broth dilution, 18 hours at 35° C.): >128 µg/mL
- MIC Enterococcus faecium (GC 4556) (Enterococcus sp.; strain GC 4556, broth dilution, 18 hours at 35° C.): >128 µg/mL
- MIC Enterococcus faecium (GC 4557) (Enterococcus sp.; strain GC 4557, broth dilution, 18 hours at 35° C.): >128 µg/mL
- MIC Enterococcus avium (GC 4558) (Enterococcus sp.; strain GC 4558, broth dilution, 18 hours at 35° C.): 128 µg/mL (≈ 126 µM)
- MIC Enterococcus faecalis (GC 6189) (Enterococcus sp.; strain GC 6189, broth dilution, 18 hours at 35° C.): >128 µg/mL
- MIC Staphylococcus aureus (ATCC 29213) (Staphylococcus sp.; strain ATCC 29213, broth dilution, 18 hours at 35° C.): >128 µg/mL
- MIC Staphylococcus aureus (GC 1131) (Staphylococcus sp.; strain GC 1131, broth dilution, 18 hours at 35° C.): >128 µg/mL
- MIC Staphylococcus aureus (GC 3051) (Staphylococcus sp.; strain GC 3051, broth dilution, 18 hours at 35° C.): >128 µg/mL
- MIC Staphylococcus aureus (GC 3053) (Staphylococcus sp.; strain GC 3053, broth dilution, 18 hours at 35° C.): >128 µg/mL
- MIC Staphylococcus aureus (GC 4541) (Staphylococcus sp.; strain GC 4541, broth dilution, 18 hours at 35° C.): >128 µg/mL
- MIC Staphylococcus aureus (GC 4542) (Staphylococcus sp.; strain GC 4542, broth dilution, 18 hours at 35° C.): >128 µg/mL
- MIC Staphylococcus aureus-SMITH (GC 4543) (Staphylococcus sp.; strain GC 4543, broth dilution, 18 hours at 35° C.): >128 µg/mL
- MIC Staphylococcus aureus (GC 4544) (Staphylococcus sp.; strain GC 4544, broth dilution, 18 hours at 35° C.): >128 µg/mL
- MIC Staphylococcus aureus (GC 4545) (Staphylococcus sp.; strain GC 4545, broth dilution, 18 hours at 35° C.): >128 µg/mL
- MIC Coagulase Negative Staphylococcus (GC 4547) (Staphylococcus sp.; strain GC 4547, broth dilution, 18 hours at 35° C.): >128 µg/mL
- MIC Coagulase Negative Staphylococcus (GC 4548) (Staphylococcus sp.; strain GC 4548, broth dilution, 18 hours at 35° C.): >128 µg/mL
- MIC Coagulase Negative Staphylococcus (GC 4549) (Staphylococcus sp.; strain GC 4549, broth dilution, 18 hours at 35° C.): >128 µg/mL
- MIC Coagulase Negative Staphylococcus (GC 4551) (Staphylococcus sp.; strain GC 4551, broth dilution, 18 hours at 35° C.): >128 µg/mL
- MIC Coagulase Negative Staphylococcus (GC 6257) (Staphylococcus sp.; strain GC 6257, broth dilution, 18 hours at 35° C.): >128 µg/mL
- MIC Escherichia coli (ATCC 25922) (Escherichia coli; strain ATCC 25922, broth dilution, 18 hours at 35° C.): >128 µg/mL
- MIC Escherichia coli (GC 4559) (Escherichia coli; strain GC 4559, broth dilution, 18 hours at 35° C.): >128 µg/mL
- MIC Escherichia coli (GC 4560) (Escherichia coli; strain GC 4560, broth dilution, 18 hours at 35° C.): 128 µg/mL (≈ 126 µM)
SMILES: CC(c1ccccc1)C1NC(=O)CNC(=O)C(CO)NC(=O)C(C(O)C2CNC(=N)N2C2OC(CO)C(O)C(O)C2O)NC(=O)C(C(O)C2CNC(=N)N2)NC(=O)C(Cc2ccc(O)c(N(C)C)c2)NC1=O (stereo not drawn) [Example 12, Cyclo[glycyl-β-methylphenylalanyl-3-(dimethylamino)tyrosyl-3-(2-iminoimidazolidin-4-yl)-seryl-3-(3-hexopyranosyl-2-iminoimidazolidin-4-yl)serylseryl]]
- MIC Staphylococcus haemolyticus (GC 4546) (Staphylococcus sp.; strain GC 4546, broth dilution, 18 hours at 35° C.): >128 µg/mL

SMILES: CC(c1ccccc1)C1NC(=O)CNC(=O)C(CO)NC(=O)C(C(O)C2CNC(=N)N2C2OC(CO)C(O)C(O)C2O)NC(=O)C(C(O)C2CNC(=N)N2)NC(=O)C(Cc2ccc(OC3OC(CO)C(OC4OC(CO)C(O)C(O)C4O)C(O)C3O)c(I)c2)NC1=O (stereo not drawn) [Example 6, Cyclo[glycyl-β-methylphenylalanyl-O-(4-O-hexolpyranosylhexolpyranosyl)-3-iodo-tyrosyl-3-(2-iminoimidazolidin-4-yl)seryl-3-(3-hexolpyranosyl-2-iminoimidazolidin-4-yl)serylseryl]]
- MIC Streptococcus agalactiae (GC 4564) (Streptococcus sp.): >128 µg/mL
- MIC Streptococcus pneumoniae (GC 4565) (Streptococcus sp.): >128 µg/mL
- MIC Streptococcus pyogenes (ID-3187) (Streptococcus sp.): >128 µg/mL
- MIC Enterococcus avium (GC 4558) (Enterococcus sp.): >128 µg/mL
- MIC Enterococcus faecalis (ATCC 29212) (Enterococcus sp.): >128 µg/mL
- MIC Enterococcus faecalis (GC 2242) (Enterococcus sp.): >128 µg/mL
- MIC Enterococcus faecalis (GC 4552) (Enterococcus sp.): >128 µg/mL
- MIC Enterococcus faecalis (GC 4553) (Enterococcus sp.): >128 µg/mL
- MIC Enterococcus faecalis (GC 4554) (Enterococcus sp.): >128 µg/mL
- MIC Enterococcus faecium (GC 2243) (Enterococcus sp.): >128 µg/mL
- MIC Enterococcus faecium (GC 4556) (Enterococcus sp.): >128 µg/mL
- MIC Enterococcus faecium (GC 4557) (Enterococcus sp.): >128 µg/mL
- MIC Coagulase Negative Staphylococcus (GC 4547) (Staphylococcus sp.): >128 µg/mL
- MIC Coagulase Negative Staphylococcus (GC 4548) (Staphylococcus sp.): >128 µg/mL
- MIC Coagulase Negative Staphylococcus (GC 4549) (Staphylococcus sp.): >128 µg/mL
- MIC Coagulase Negative Staphylococcus (GC 4551) (Staphylococcus sp.): >128 µg/mL
- MIC Coagulase Negative Staphylococcus (ID-3941) (Staphylococcus sp.): >128 µg/mL
- MIC Staphylococcus aureus (ATCC 29213) (Staphylococcus sp.): >128 µg/mL
- MIC Staphylococcus aureus (GC 1131) (Staphylococcus sp.): >128 µg/mL
- MIC Staphylococcus aureus (GC 4541) (Staphylococcus sp.): >128 µg/mL
- MIC Staphylococcus aureus (GC 4542) (Staphylococcus sp.): >128 µg/mL
- MIC Staphylococcus aureus (GC 4544) (Staphylococcus sp.): >128 µg/mL
- MIC Staphylococcus aureus (GC 4545) (Staphylococcus sp.): >128 µg/mL
- MIC Staphylococcus aureus-SMITH (GC 4543) (Staphylococcus sp.): >128 µg/mL
- MIC Staphylococcus haemolyticus (GC 4546) (Staphylococcus sp.): >128 µg/mL
- MIC Escherichia coli (ATCC 25922) (Escherichia coli): >128 µg/mL
- MIC Escherichia coli (GC 4559) (Escherichia coli): >128 µg/mL
- MIC Escherichia coli (GC 4560) (Escherichia coli): >128 µg/mL
